Measurements as given in patent US5877193A, “Use of N-(4-aryl-thiazol-2-yl)-sulfonamides” (Hoffmann-La Roche Inc., priority 1996, dated 1999).
Converted amounts (≈) assume the structure as drawn. Where two headings read alike, the source gives them in different places.

What was measured:
kynurenin-3-hydroxylase [1] = target: T1, kynurenin-3-hydroxylase (Rattus norvegicus, UniProt O88867); experiment: in vitro kynurenin-3-hydroxylase inhibition (crude rat kidney mitochondrial preparation); type: biochemical; conditions: for remaining activity at 1 µM: read-out: % of control at 1 μM; for IC50: pH 7.4
T1 construct: The enzyme source is a crude rat kidney mitochondrial preparation; from tissue; host or cells: rat kidney, crude mitochondrial preparation
From the text: (§1) Determination of kynurenin-3-hydroxylase in vitro and ex vivo
(§2) The kynurenin-3-hydroxylase inhibiting activity of the compounds in accordance with the invention can be determined in vitro and ex vivo using standard methods. The preparations to be tested were examined in the tests described hereinafter, which are based on the methods published by J. B. Erickson, E. M. Flanagan, S. Russo and J. F. Reinhard [Anal. Biochem. 1992, 205: 257-262].
The enzyme source is a crude rat kidney mitochondrial preparation which, taken up in the ratio 1:70 (weight/volume) in a potassium phosphate buffer of pH 7.4, containing EGTA, is kept in the frozen state at -80° C. until used. The enzyme test for the in vitro determination differs from the ex vivo determination described hereinafter by the use of the mentioned mitochondreal preparation in place of tissue homogenates as the enzyme source and by a pre-incubation of the enzyme with the substances to be tested at 37° C. for 15 min.
(§3) Measurement of the enzyme activity
(§4) Scheme of a typical procedure carried out in an incubation tube of appropriate size or on a microtitre plate:
(§5) 25 μl of the substance to be tested in a suitable concentration (in vitro) or homogenization buffer (ex vivo)
(§6) 25 μl of potassium phosphate buffer 0.2M containing 0.4 units of glucose-6-phosphate dehydrogenase
(§7) 25 μl of the mitochondrial preparation (in vitro) or of the kidney or liver homogenate (ex vivo)
pre-incubation: 15 min at 37° C. (only in vitro)
(§8) 25 μl of the substrate L-kynurenin containing L-^3 H-3-kynurenin (0.1 μCi)
(§9) 100 μmol, magnesium chloride 4 mmol, NADPH 200 μmol, glucose-6-phosphate 3 mmol (concentration data as final concentrations)
(§10) incubation: 10 min (in vitro) or 2 min (ex vivo) at 37° C. on a shaking machine
(§11) 150 μl of a 10% suspension of active charcoal (Norit A) in water (to remove unreacted labelled substrate)
(§12) shaking for about one minute
(§13) centrifugation for 4 min at 4000 revolutions/min
(§14) transfer of 50 μl of the charcoal-free supernatant into a counting vessel
(§15) addition of 150 μl of an appropriate scintillator to count the radioactivity of the now-tritiated water, which is a measurement of the enzyme activity which exists.
The IC50 value is a measurement of the strength of the in vitro enzyme inhibition which is brought about by the tested substances. It is the concentration of test substance which brings about a 50% inhibition of the enzyme activity.

kynurenin-3-hydroxylase [2] = target: T1, kynurenin-3-hydroxylase; experiment: ex vivo kynurenin-3-hydroxylase inhibition in the liver after oral administration to rats; conditions: 2 hours; for ED50: po
Method: as §1, §2
The substances to be tested are administered orally to male rats of 100-140 g body weight in a dosage of 30 μmol/kg. The kidneys and a part of the liver are removed from the animals, which are decapitated after 2 hours, and frozen at -80° C. until used. In order to measure the enzyme activity, the organs are homogenized in the ratio 1:10 (weight/volume) in sucrose, containing TRIS/HCl, pH 7.4 and PMSF.
as §3, §4, §5, §6, §7, §8, §9, §10, §11, §12, §13, §14, §15
The ED50 value or, where this is not achieved, the percentage inhibition after administration of a single dosage, is a measurement of the strength of the ex vivo enzyme inhibition which is brought about by the tested substances. The ED50 value is that dosage of test substance which leads to a 50% enzyme inhibition in the investigated tissue homogenates.

Enterococcus faecalis = experiment: antibacterial activity, MIC by microdilution; type: cell-based
Method: (§16) Method for the determination of antibacterial activity
(§17) The minimum inhibitory concentration (MIC in μg/ml) was determined by the microdilution method in which an Isosensotest bouillon (Oxoid) was used and was complemented with 3% horse blood for Streptococcus and Listeria. The inoculation amount was approximately 5×10^5 CFU/ml. After incubation at 37° C. for 18 h the plates were evaluated at 650 nm. The MIC was determined as the lowest concentration of active substance which brought about a growth inhibition of ≥80% compared to the control.

Escherichia coli = experiment: antibacterial activity, MIC by microdilution; type: cell-based; conditions: ATCC25922, strain ATCC 25922, BCB 1001/04, 37° C., 18 h
Method: as §16, §17

Listeria monocytogenes = experiment: antibacterial activity, MIC by microdilution; type: cell-based; conditions: 18 h
Method: as §16, §17

Pseudomonas aeruginosa = experiment: antibacterial activity, MIC by microdilution; type: cell-based; conditions: 18 h
Method: as §16, §17

Staphylococcus aureus = experiment: antibacterial activity, MIC by microdilution; type: cell-based
Method: as §16, §17

Streptococcus pneumoniae = experiment: antibacterial activity, MIC by microdilution; type: cell-based
Method: as §16, §17

Streptococcus pyogenes = experiment: antibacterial activity, MIC by microdilution; type: cell-based; conditions: 18 h
Method: as §16, §17

[3] = ATCC29212, strain ATCC 29212, BCB 1003/28, 37° C., 18 h, read-out: MIC
[4] = strain BK23, BCB 1003/55, 3% horse blood, 37° C., read-out: MIC
[5] = strain BA, BCB 1004/01, 37° C., read-out: MIC
[6] = ATCC25923, strain ATCC 25923, BCB 1003/04, 37° C., 18 h, read-out: MIC
[7] = ATCC49619, strain ATCC 49619, 3% horse blood, 37° C., 18 h, read-out: MIC
[8] = strain B15, BCB 1003/35, 3% horse blood, 37° C., read-out: MIC

T1 sequence (O88867 whole entry): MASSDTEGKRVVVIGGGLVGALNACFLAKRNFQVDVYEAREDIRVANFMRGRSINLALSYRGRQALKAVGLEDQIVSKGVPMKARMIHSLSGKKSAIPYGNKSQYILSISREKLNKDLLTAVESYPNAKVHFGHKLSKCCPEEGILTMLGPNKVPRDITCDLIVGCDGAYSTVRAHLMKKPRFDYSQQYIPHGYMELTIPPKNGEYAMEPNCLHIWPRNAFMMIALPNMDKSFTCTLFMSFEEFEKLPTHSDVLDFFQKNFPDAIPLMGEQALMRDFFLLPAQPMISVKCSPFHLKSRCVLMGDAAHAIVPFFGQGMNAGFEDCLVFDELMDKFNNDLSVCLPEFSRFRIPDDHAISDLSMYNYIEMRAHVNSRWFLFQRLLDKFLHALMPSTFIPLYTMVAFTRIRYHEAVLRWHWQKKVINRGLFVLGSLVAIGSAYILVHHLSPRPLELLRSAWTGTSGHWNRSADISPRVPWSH

SMILES | remaining activity at 1 µM (kynurenin-3-hydroxylase [1]) | IC50 (kynurenin-3-hydroxylase [1]) | % of control 30 μM/kg p.o in the liver (kynurenin-3-hydroxylase [2]) | ED50 (kynurenin-3-hydroxylase [2]) | MIC (Escherichia coli) | other results
COc1ccc(S(=O)(=O)Nc2nc(-c3cccc([N+](=O)[O-])c3)cs2)cc1OC [Example 21, 3,4-Dimethoxy-N-[4-(3-nitro-phenyl)-thiazol-2-yl]-benzenesulfonamide] | 2% | 26 nM | 10.00% | 4.7 µmol/kg | – | –
Cc1ccc(S(=O)(=O)Nc2nc(-c3cccc([N+](=O)[O-])c3)cs2)cc1 [Example 3, 4-Methyl-N-[4-(3-nitro-phenyl)-thiazol-2-yl]-benzene-sulfonamide] | – | 40 nM | 43.00% | – | – | –
Cc1cc(NS(=O)(=O)c2ccc(N)cc2)no1 [SMZ, sulfamethoxazole, reference compound] | – | – | – | – | 128 µg/mL (≈ 505 µM) | MIC (Enterococcus faecalis; ATCC29212, 18 h): > 256 µg/mL; MIC (Listeria monocytogenes): > 256 µg/mL; MIC (Pseudomonas aeruginosa): > 256 µg/mL; MIC (Staphylococcus aureus; ATCC25923, 18 h): 32 µg/mL (≈ 126 µM); MIC (Streptococcus pneumoniae; ATCC49619, 18 h): > 256 µg/mL; MIC (Streptococcus pyogenes): 16 µg/mL (≈ 63.2 µM)
COc1ccc(-c2csc(NS(=O)(=O)c3ccc(C)cc3)n2)cc1OC [Example 6, N-[4-(3,4-Dimethoxy-phenyl)-thiazol-2-yl]-4-methyl-benzenesulfonamide] | 4.58% | 65 nM | 54.00% | – | – | –
Nc1ccc(S(=O)(=O)Nc2nc(-c3cc(C(F)(F)F)ccc3F)cs2)cc1 [Example 42, 4-Amino-N-[4-(2-fluoro-5-trifluoromethyl-phenyl)-thiazol-2-yl]benzenesulfonamide] | 1.4% | 15 nM | – | 4.6 µmol/kg | 256 µg/mL (≈ 613 µM) | MIC (Enterococcus faecalis; [3]): > 256 µg/mL; MIC (Listeria monocytogenes; [4]): > 256 µg/mL; MIC (Pseudomonas aeruginosa; [5]): > 256 µg/mL; MIC (Staphylococcus aureus; [6]): 16 µg/mL (≈ 38.3 µM); MIC (Streptococcus pneumoniae; [7]): > 256 µg/mL; MIC (Streptococcus pyogenes; [8]): 16 µg/mL (≈ 38.3 µM)
COc1cc(Cc2cnc(N)nc2N)cc(OC)c1OC [TMP, trimethoprim, reference compound] | – | – | – | – | 1 µg/mL (≈ 3.44 µM) | MIC (Enterococcus faecalis; ATCC29212, 18 h): 0.125 µg/mL (≈ 0.431 µM); MIC (Listeria monocytogenes; [4]): 0.25 µg/mL (≈ 0.861 µM); MIC (Pseudomonas aeruginosa; [5]): 8 µg/mL (≈ 27.6 µM); MIC (Staphylococcus aureus; [6]): 0.5 µg/mL (≈ 1.72 µM); MIC (Streptococcus pneumoniae; [7]): 4 µg/mL (≈ 13.8 µM); MIC (Streptococcus pyogenes; [8]): 2 µg/mL (≈ 6.89 µM)
Cc1ccc(S(=O)(=O)Nc2nc(-c3cc(C(F)(F)F)ccc3F)cs2)cc1 [Example 32, N-[4-(2-Fluoro-5-trifluoromethyl-phenyl)-thiazol-2-yl]-4-methyl-benzenesulfonamide] | 2.5% | 43 nM | – | 17 µmol/kg | – | –
COc1ccc(S(=O)(=O)Nc2nc(-c3cc(C(F)(F)F)ccc3F)cs2)cc1OC [Example 46, 3,4-Dimethoxy-N-[4-(2-fluoro-5-trifluoromethyl-phenyl)-thiazol-2-yl]benzenesulfonamide] | 4.7% | 22 nM | – | 5.3 µmol/kg | > 256 µg/mL | MIC (Enterococcus faecalis; [3]): > 256 µg/mL; MIC (Listeria monocytogenes; [4]): > 256 µg/mL; MIC (Pseudomonas aeruginosa; [5]): > 256 µg/mL; MIC (Staphylococcus aureus; [6]): 32 µg/mL (≈ 69.2 µM); MIC (Streptococcus pneumoniae; [7]): > 256 µg/mL; MIC (Streptococcus pyogenes; [8]): 64 µg/mL (≈ 138 µM)
COc1ccc(S(=O)(=O)Nc2nc(-c3cc(C(F)(F)F)ccc3F)cs2)cc1 [Example 41, N-[4-(2-fluoro-5-trifluoromethyl-phenyl)-thiazol-2-yl]-4-methoxy-benzenesulfonamide] | 18% | 50 nM | – | 17 µmol/kg | – | –
O=[N+]([O-])c1cccc(-c2csc(NS(=O)(=O)c3ccc4ccccc4c3)n2)c1 [D, Naphthalene2-sulfonic acid [4(3-nitro-phenyl)-thiazol-2-yl)-amide] | 4% | 30 nM | 20.00% | – | – | –
COc1ccc(S(=O)(=O)Nc2nc(-c3cccc([N+](=O)[O-])c3)cs2)cc1 [Example 8, 4-Methoxy-N-[4-(3-nitro-phenyl)-thiazol-2-yl]-benzenesulfonamide] | 5% | 44 nM | 23.00% | 9 µmol/kg | – | –
